In paper PMC8391922, “The Combined Effect of Branching and Elongation on the Bioactivity Profile of Phytocannabinoids. Part I: Thermo-TRPs” (Biomedicines, 2021):
Like-named read-outs stand apart in the source and are kept apart here.

What was measured:
Format in all cases: cell-based
rat TRPM8 = molecular target: T1, rat TRPM8 (Rattus norvegicus, UniProt Q8R455); assay: TRPM8 antagonism of icilin-induced intracellular Ca2+ elevation (Fluo-4) in transfected HEK-293 cells; conditions: compound added 5 min before agonist icilin 0.25 μM
T1 construct: expressed in transfected cells; host or cells: HEK-293
Protocol: (§1) Assays of rat TRPA1, TRPV2, TRPV3, TRPV4, and TRPM8 or human TRPV1 mediated elevation of intracellular Ca ^2+ in transfected HEK-293 cells were performed with a continuous monitoring of [Ca ^2+]i during the experiments. […] Cell fluorescence before and after the addition of various concentrations of test compounds was measured, normalizing the effects against the response to ionomycin (IM, 4 μM). The values of the effect on [Ca^2+]i in HEK-293 cells not transfected were used as baseline and subtracted from the values obtained from transfected cells. For TRPA1, agonist efficacy was expressed as a percentage of the effect on [Ca ^2+]i observed with 100 μM allylisothiocyanate. […] In the TRPV3 assay, TRPV3-expressing HEK293 cells were first sensitized with the structurally unrelated agonist 2-aminoethoxydiphenyl borate (100 μM). Antagonist/desensitizing behavior is evaluated against the agonist of the TRP analyzed by adding the compounds directly in the quartz cuvette 5 min before stimulation of cells with the agonist. […] Dose-response curve fitting (sigmoidal dose-response variable slope) and parameter estimation were performed with Graph-Pad Prism8 (GraphPad Software Inc., San Diego, CA, USA). All determinations were performed at least in triplicate.

rat TRPV4 = molecular target: T2, rat TRPV4 (Rattus norvegicus, UniProt Q9ERZ8); assay: TRPV4-mediated elevation of intracellular Ca2+ (Fluo-4) in transfected HEK-293 cells; conditions: for TRPV4 Efficacy (% IM 4 μM): percentage of the response to ionomycin 4 μM
T2 construct: expressed in transfected cells; host or cells: HEK-293
Protocol: as §1

rat TRPV2 = molecular target: T3, rat TRPV2 (Rattus norvegicus, UniProt Q9WUD2); assay: TRPV2-mediated elevation of intracellular Ca2+ (Fluo-4) in transfected HEK-293 cells; conditions: for IC50: compound added 5 min before agonist CBD 2 μM; for TRPV2 Efficacy (% IM 4 μM): percentage of the response to ionomycin 4 μM, HEK-293
T3 construct: expressed in transfected cells; host or cells: HEK-293
T3 sequence (Q9WUD2 1-761): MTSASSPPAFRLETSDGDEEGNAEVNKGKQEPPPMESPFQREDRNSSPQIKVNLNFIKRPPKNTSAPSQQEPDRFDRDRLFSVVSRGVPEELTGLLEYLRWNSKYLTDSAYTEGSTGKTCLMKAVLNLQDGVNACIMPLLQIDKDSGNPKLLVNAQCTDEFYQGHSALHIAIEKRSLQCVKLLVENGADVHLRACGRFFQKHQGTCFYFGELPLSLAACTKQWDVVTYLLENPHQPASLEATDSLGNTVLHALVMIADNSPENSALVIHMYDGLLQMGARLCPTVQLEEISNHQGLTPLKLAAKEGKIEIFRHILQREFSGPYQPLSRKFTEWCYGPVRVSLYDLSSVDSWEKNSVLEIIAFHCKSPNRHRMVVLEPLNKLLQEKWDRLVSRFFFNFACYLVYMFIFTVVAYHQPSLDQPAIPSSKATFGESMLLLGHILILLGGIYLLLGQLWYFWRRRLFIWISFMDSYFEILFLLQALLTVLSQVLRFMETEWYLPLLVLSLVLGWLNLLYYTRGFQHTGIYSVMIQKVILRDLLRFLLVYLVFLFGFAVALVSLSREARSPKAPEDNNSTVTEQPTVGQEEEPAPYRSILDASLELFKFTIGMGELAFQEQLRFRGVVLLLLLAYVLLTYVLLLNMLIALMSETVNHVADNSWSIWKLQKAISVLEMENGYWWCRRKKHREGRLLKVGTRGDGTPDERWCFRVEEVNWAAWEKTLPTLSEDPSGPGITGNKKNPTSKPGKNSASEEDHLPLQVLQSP
Protocol: as §1

human TRPV1 = molecular target: T4, human TRPV1 (Homo sapiens, UniProt Q8NER1); assay: TRPV1-mediated elevation of intracellular Ca2+ (Fluo-4) in transfected HEK-293 cells; conditions: for TRPV1 Efficacy (% IM 4 μM): percentage of the response to ionomycin 4 μM, HEK-293
T4 construct: expressed in transfected cells; host or cells: HEK-293
Protocol: as §1

[1] = antagonist, read-out: IC50 TRPM8
[2] = antagonist/desensitizing, compound added 5 min before agonist GSK1016790A 10 nM, read-out: IC50 TRPV4
[3] = antagonist/desensitizing, read-out: IC50 TRPV2
[4] = antagonist/desensitizing, compound added 5 min before agonist capsaicin 0.1 μM
[5] = antagonist/desensitizing, compound added 5 min before agonist capsaicin 0.1 μM, read-out: IC50 TRPV1
[6] = IC50 TRPV2, antagonist/desensitizing

T2 sequence (Q9ERZ8 whole entry): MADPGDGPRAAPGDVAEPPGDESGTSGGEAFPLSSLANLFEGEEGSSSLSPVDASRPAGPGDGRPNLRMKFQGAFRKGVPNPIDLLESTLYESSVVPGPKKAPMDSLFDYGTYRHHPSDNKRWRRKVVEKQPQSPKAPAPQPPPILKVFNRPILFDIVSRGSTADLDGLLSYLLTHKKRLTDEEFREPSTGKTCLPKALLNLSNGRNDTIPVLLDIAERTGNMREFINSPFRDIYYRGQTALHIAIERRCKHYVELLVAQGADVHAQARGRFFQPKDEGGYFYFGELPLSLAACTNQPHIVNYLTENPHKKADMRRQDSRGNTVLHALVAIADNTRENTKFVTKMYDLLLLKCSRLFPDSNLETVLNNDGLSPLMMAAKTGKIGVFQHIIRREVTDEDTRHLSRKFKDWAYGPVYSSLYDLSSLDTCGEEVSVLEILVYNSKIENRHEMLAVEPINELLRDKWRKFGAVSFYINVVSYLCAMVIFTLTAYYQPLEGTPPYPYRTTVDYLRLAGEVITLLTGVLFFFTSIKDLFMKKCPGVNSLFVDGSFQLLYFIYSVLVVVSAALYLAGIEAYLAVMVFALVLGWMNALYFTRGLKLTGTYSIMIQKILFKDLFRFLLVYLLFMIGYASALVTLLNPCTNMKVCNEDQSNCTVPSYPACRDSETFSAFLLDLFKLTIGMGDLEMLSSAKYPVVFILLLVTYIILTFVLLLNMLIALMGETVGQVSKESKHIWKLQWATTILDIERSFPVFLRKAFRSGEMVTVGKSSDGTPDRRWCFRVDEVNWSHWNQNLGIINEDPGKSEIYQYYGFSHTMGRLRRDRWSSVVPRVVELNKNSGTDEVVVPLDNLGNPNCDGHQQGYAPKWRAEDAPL
T1 sequence (Q8R455 whole entry): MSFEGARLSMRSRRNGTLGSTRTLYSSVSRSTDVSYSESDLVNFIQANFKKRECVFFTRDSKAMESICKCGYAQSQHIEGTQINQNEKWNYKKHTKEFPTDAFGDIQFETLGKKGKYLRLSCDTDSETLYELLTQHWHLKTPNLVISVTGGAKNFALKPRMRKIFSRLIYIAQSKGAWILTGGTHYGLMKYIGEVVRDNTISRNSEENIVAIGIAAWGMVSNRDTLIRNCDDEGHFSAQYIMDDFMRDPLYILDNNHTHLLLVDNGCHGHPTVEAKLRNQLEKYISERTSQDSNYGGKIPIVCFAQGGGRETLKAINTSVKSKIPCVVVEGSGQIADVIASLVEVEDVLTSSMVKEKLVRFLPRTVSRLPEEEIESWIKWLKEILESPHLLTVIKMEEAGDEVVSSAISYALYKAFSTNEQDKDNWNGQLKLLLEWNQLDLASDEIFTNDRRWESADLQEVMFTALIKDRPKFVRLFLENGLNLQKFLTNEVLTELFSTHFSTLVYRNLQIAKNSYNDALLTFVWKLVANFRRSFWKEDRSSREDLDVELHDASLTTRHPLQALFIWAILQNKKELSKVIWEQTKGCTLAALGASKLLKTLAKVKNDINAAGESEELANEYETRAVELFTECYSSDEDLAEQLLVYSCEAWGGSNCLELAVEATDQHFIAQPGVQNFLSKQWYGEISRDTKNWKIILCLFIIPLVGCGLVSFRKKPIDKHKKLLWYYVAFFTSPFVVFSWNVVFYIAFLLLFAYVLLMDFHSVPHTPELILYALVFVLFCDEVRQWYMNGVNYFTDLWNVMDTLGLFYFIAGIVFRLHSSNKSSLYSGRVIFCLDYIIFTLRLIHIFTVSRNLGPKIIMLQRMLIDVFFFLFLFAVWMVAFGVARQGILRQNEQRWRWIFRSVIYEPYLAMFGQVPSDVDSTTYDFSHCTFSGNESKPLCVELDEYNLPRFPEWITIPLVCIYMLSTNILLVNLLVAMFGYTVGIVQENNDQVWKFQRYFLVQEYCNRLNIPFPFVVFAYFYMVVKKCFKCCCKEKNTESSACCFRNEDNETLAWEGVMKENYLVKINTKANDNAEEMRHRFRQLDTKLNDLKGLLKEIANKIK
T4 sequence (Q8NER1 whole entry): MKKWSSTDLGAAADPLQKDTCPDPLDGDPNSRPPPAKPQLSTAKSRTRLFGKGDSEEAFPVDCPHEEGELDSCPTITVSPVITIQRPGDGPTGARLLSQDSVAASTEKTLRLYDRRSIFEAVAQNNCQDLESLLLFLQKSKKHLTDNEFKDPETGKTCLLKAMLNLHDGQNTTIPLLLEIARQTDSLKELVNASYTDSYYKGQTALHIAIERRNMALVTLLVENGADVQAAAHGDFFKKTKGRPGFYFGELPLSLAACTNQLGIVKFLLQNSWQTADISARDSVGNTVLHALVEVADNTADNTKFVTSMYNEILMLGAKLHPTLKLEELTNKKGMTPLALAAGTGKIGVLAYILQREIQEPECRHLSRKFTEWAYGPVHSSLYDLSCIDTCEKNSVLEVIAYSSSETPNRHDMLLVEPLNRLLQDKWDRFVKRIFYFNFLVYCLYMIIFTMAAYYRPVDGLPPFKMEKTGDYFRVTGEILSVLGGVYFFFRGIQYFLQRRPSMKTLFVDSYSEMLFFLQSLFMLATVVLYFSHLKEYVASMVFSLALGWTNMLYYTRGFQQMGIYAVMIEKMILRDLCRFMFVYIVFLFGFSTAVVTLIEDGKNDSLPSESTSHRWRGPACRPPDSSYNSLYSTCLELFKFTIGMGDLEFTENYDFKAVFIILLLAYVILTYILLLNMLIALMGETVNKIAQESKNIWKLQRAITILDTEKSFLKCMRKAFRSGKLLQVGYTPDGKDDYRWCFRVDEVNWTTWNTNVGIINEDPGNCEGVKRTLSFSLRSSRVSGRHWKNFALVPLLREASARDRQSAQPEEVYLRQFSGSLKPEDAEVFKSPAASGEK

SMILES	IC50 (rat TRPM8; [1]) [µM]	IC50 (rat TRPV4; [2]) [µM]	TRPV4 Efficacy (% IM 4 μM) (rat TRPV4; HEK-293) [%]	IC50 (rat TRPV2; [3]) [µM]	TRPV2 Efficacy (% IM 4 μM) (rat TRPV2) [%]	IC50 TRPV1 (human TRPV1; [4])	IC50 (human TRPV1; [5]) [µM]	TRPV1 Efficacy (% IM 4 μM) (human TRPV1) [%]	IC50 (rat TRPM8; IC50 TRPM8, antagonist) [µM]	EC50 (rat TRPV4; half-maximal increase in [Ca2+]i, HEK-293, read-out: TRPV4 Potency EC50) [µM]	EC50 (rat TRPV2) [µM]	IC50 (rat TRPV2; [6]) [µM]	IC50 (human TRPV1) [µM]	IC50 TRPM8 (rat TRPM8; antagonist)	IC50 (rat TRPV4) [µM]	EC50 (human TRPV1) [µM]
C=C(C)[C@@H]1CCC(C)=C[C@H]1c1c(O)cc(C(C)(C)CCCCCC)cc1O [1b, Depentyl-α,α-dimethylheptyl-cannabidiol]	13.4 ± 2.1	> 100	34.0 ± 1.3	16.8 ± 0.2	< 10	inactive	> 100	< 10								
CCCCCCC(C)(C)c1cc(O)c(C/C=C(\C)CCC=C(C)C)c(O)c1 [7b, Depentyl-α,α-dimethylheptyl-cannabigerol]		35.4 ± 3.2	34.4 ± 5.2		65.3 ± 0.7	inactive		< 10	9.2 ± 0.8	39 ± 21.6	9.8 ± 0.6	39.4 ± 4.5	> 100			
CCCCCCC(C)(C)c1cc(O)c2c(c1)OC(C)(CCC=C(C)C)C=C2 (stereo not drawn) [8b, Depentyl-α,α-dimethylheptyl-cannabichromene]			< 10		76.1 ± 0.6			18.9 ± 0.2	> 100		> 50	22.6 ± 0.2	> 100	totally inactive	> 100	12.8 ± 0.9
CCCCCCCc1cc(O)c2c(c1)OC(C)(CCC=C(C)C)C=C2 (stereo not drawn) [8c, Depentyl-5-n-heptylcannabichromene]	> 100	> 100	<10	9 ± 0.8	<10		> 100	<10								
CCCCC(C)(C)c1cc(O)c2c(c1)OC(C)(CCC=C(C)C)C=C2 (stereo not drawn) [8d, Depentyl-5-α,α-dimethylpentylcannabichromene]	23.6 ± 7.4	> 100	<10	13.3 ± 1.1	<10		> 100	<10								
